Laboratory results from patent US5037828A, “Piperazine derivatives, uses thereof and pharmaceutical compositions containing them” (Boehringer Mannheim GmbH, priority 1989, dated 1991).

What was measured:
[1] = biological target: α1 -receptor; assay: Receptor binding study, displacement of tritium-labeled prazosin in brain membrane homogenates; settings: mean of 4-6 experiments, read-out: α1 -receptor affinity IC50
Protocol: 1. The affinities of the compounds were studied in receptor binding studies using prazosin as tritium-labeled ligand. The investigations were performed in brain membrane homogenates. The affinity was expressed as IC50 -value (the IC50 -value is the concentration in nmol/l which displaces 50% of the labeled ligand). Low values indicate a high affinity.

[2] = tested on: isolated rat aortic strips; assay: In vitro vasorelaxation of isolated rat aortic strips precontracted with noradrenaline; settings: 25 min, 3 × 10^-6 M, noradrenaline 10^-5 M precontraction, end of 25 min incubation, mean of 4-6 experiments
Protocol: 2. In vitro investigations were performed on isolated rat aortic strips precontracted with noradrenaline (10^-5 M). The test compounds were added to the bath solution at concentrations of 3×10^-6 M in order to test for vasorelaxation. The relaxation was evaluated at the end of an incubation period of 25 min. High values indicate a strong vasorelaxing effect.

[3] = tested on: conscious spontaneously hypertensive rats; assay: Blood pressure lowering activity in conscious spontaneously hypertensive rats; assay type: in vivo, rat; settings: 10 mg/kg i.v.; 15 min after administration; mean arterial blood pressure; mean of 4-6 experiments
Protocol: 3. The blood pressure lowering activity of the test compounds was investigated in conscious spontaneously hypertensive rats. The blood pressure response to the test compounds was evaluated by means of continuous monitoring of the mean arterial blood pressure via an implanted catheter, electromagnetic transducer and a direct recording system. The test compounds were injected at a dose of 10 mg/kg i.v. and the blood pressure response was determined 15 min after administration.

[4] = in words; U.S. Pat. No. 3,997,666; cited from earlier work
[5] = tested on: anaphylactoid reactions in rats induced by dextran; settings: in words, U.S. Pat. No. 3,997,666; cited from earlier work

| IC50 [1] [nM] | SMILES | inhibition at 3 µM [2] [%] | blood pressure decrease [3] [mmHg] | antihypertensive properties [4] | inhibition of anaphylactoid reactions induced by dextran [5] |
| --- | --- | --- | --- | --- | --- |
| 52.7 | COc1ccccc1N1CCN(CC(O)COc2ccc(O)c3ccccc23)CC1 (centres unmarked) [Example 3, 1-(2-Methoxyphenyl)-4-[3-(4-hydroxynaphth-1-yloxy)-2-hydroxypropyl]-piperazine] | 85 | 48 | – | – |
| 235 | COc1ccccc1N1CCN(CC(O)COc2cccc3ccccc23)CC1 (centres unmarked) [naftopidil, 1(2-methoxyphenyl)-4-/3-(naphth-1-yloxy)-2-hydroxypropyl/-piperazine] | 53 | 31 | possesses antihypertensive properties | inhibits anaphylactoid reactions in rats induced by dextran |
